Values after ≈ are worked out from the molar mass of the structure shown.
How the values were obtained:
[1] = system: ALS (acetolactate syntase); assay: ALS enzyme assay (Test 1); format: biochemical, barnyardgrass; conditions: 1,000 ppm (0.5 mg/0.5 ml)
Experimental: To determine the selectivity in enzyme level between crops and weeds, and ALS enzyme assay was conducted using pea as a representative of broadleaf crops and barnyardgrass as a representative of narrowleaf weeds.
After seeds of pea and barnyardgrass were allowed to germinate at 25° C. for 8-14 days in a dark place, partially-purified suspensions (Suspensions A) of acetolactate syntase were separately obtained from seedlings in accordance with the method described in the literature, Plant Physiology, 75, 827-831.
In a test tube, 0.5 mg of one of test compounds was weighed, followed by the addition of 0.15 ml of a 20 mM K2 HPO4 solution and 0.25 ml of a reaction substrate medium which consisted of 40 mM of K2 HPO4, 40 mM of sodium pyruvate, 1 mM of TPP, 1 mM of MgCl2 and 20 μM of FAD so that 0.4 ml of a reaction solution (Solution B) was prepared. Added to 0.4 ml of Solution B was 0.1 ml of suspension A. After the resultant mixture was shaken for 1 hour in a thermostat water bath controlled at 30° C., 50 μl of 6N sulfuric acid were added to terminate the reaction.
Next, the reaction-terminated liquid mixture was transferred into a thermostat water bath controlled at 60° C. and was heated for 15 minutes. Thereafter, 0.5 ml of a 0.5% creatine solution and 0.5 ml of a 5% alkaline α-naphthol solution were added, and the resultant mixture was maintained at 60° C. for 15 minutes. As a result, the test solution developed a pink-red color. After the above operation, the absorbance of the test solution at 525 nm was measured by a spectrophotometer (Absorbance 1 of Test Compound).
On the other hand, the absorbance (Absorbance 2 of Blank) of a solution obtained by subjecting a portion of Solution B, said portion being free of the test compound, to the above operation and the absorbance (Absorbance 3 of sulfuric acid terminated) of another solution obtained by subjecting another portion of Solution B, said portion containing 50 μl of 6N sulfuric acid as a test compound, were measured at the same time. Based on the values of the respective measurements, the enzyme assay at 1,000 ppm (0.5 mg/0.5 ml) of each compound was determined. [formula]

barnyardgrass [2] = assay: Upland foliar application test (Test 3); format: in vivo; conditions: 30 g ai/a, foliar spray at 2-3 leaves, 30th day
Experimental: (§1) Resin-made 1/10000-are pots were filled with the soil of an upland field. Redroot pigweed, common lambsquarters, foxtail meadow, johnsongrass, barnyardgrass, green foxtail, large crabgrass, soybean, peanut and cotton were separately seeded and were allowed to germinate in a green house. When each plant grew to the stage of 2-3 leaves, an emulsion formulated from a predetermined amount of each test compound in a similar manner to the method described in Formulation Example 11 was diluted with water to a predetermined dilution rate and then sprayed at an application rate equal to 5 l per are onto the foliage of each plant by means of a pressure-operated ULV (ultra low volume) sprayer. Influence to the crops and weeds were observed on the 30th day after the spray of the herbicides. The results are shown in Table 4 in which the degree of damages of each test plant and the degree of injury to each crop are shown in a similar manner to Test 2.

common lambsquarters = assay: Upland foliar application test (Test 3); format: in vivo; conditions: 30 g ai/a, foliar spray at 2-3 leaves, 30th day
Experimental: as §1

foxtail meadow = assay: Upland foliar application test (Test 3); format: in vivo; conditions: 30 g ai/a, foliar spray at 2-3 leaves, 30th day
Experimental: as §1

green foxtail = assay: Upland foliar application test (Test 3); format: in vivo; conditions: 30 g ai/a, foliar spray at 2-3 leaves, 30th day
Experimental: as §1

johnsongrass = assay: Upland foliar application test (Test 3); format: in vivo; conditions: 30 g ai/a, foliar spray at 2-3 leaves, 30th day
Experimental: as §1

large crabgrass = assay: Upland foliar application test (Test 3); format: in vivo; conditions: 30 g ai/a, foliar spray at 2-3 leaves, 30th day
Experimental: as §1

redroot pigweed = assay: Upland foliar application test (Test 3); format: in vivo; conditions: 30 g ai/a, foliar spray at 2-3 leaves, 30th day
Experimental: as §1

peanut = assay: Upland foliar application test (Test 3), crop injury; format: in vivo; conditions: 30 g ai/a, foliar spray at 2-3 leaves, 30th day
Experimental: as §1

Sagittaria pygmaea [3] = assay: Treatment of soil under submerged condition, pre-emergence (Test 4); format: in vivo; conditions: 30 g ai/a granule, 30 days later
Experimental: (§2) 1/5000-are Wagner pots were filled with soil. Seeds or tubers of barnyardgrass, Monochoria vaginalis, bulrush, Sagittaria pygmaea, Cyperus seroylnus and Eleocharis kuroguwai were seeded or planted under submerged condition. Two pairs of rice seedlings (2-3 leaf stage), which had been reared in advance, were transplanted to each pot and were allowed to germinate in a green house. Each pair consisted of two rice seedlings. One day later (before emergence of weeds), each pot was treated with a granule which had been prepared by processing a predetermined amount of the test composition in accordance with a similar method to the method described in Formulation Example 9. The state of emergence of weeds and the state of injury of rice were observed 30 days later.
(§3) In the table, the degrees of damages of the test plants and the degrees of injury of rice are shown in a similar manner to Example 2.

barnyardgrass [4] = assay: as above; format: in vivo; conditions: 30 g ai/a granule, 30 days later
Experimental: as §2, §3

bulrush [5] = assay: as above; format: in vivo; conditions: 30 g ai/a granule, 30 days later
Experimental: as §2, §3

rice [6] = assay: Treatment of soil under submerged condition, pre-emergence (Test 4), injury; format: in vivo; conditions: 30 g ai/a granule, 30 days later
Experimental: as §2, §3

Sagittaria pygmaea [7] = assay: Treatment of soil under submerged condition, post-emergence (Test 5); format: in vivo; conditions: 30 g ai/a granule, 30 days later
Experimental: as §2, with “serroylnus” for “seroylnus”, “grow” for “germinate”, “When the barnyardgrass grew to two-leaf stage,” for “One day later (before emergence of weeds),”
(§4) In the table, the degrees of damages of the test plants and the degrees of injury of the rice are shown in a similar manner to Example 2.

barnyardgrass [8] = assay: as above; format: in vivo; conditions: 30 g ai/a granule, post-emergence (barnyardgrass two-leaf stage), 30 days later
Experimental: as §2, with “serroylnus” for “seroylnus”, “grow” for “germinate”, “When the barnyardgrass grew to two-leaf stage,” for “One day later (before emergence of weeds),”
as §4

bulrush [9] = assay: as above; format: in vivo; conditions: 30 g ai/a granule, 30 days later
Experimental: as §2, with “serroylnus” for “seroylnus”, “grow” for “germinate”, “When the barnyardgrass grew to two-leaf stage,” for “One day later (before emergence of weeds),”
as §4

rice [10] = assay: Treatment of soil under submerged condition, post-emergence (Test 5), injury; format: in vivo; conditions: 30 g ai/a granule, 30 days later
Experimental: as §2, with “serroylnus” for “seroylnus”, “grow” for “germinate”, “When the barnyardgrass grew to two-leaf stage,” for “One day later (before emergence of weeds),”
as §4

narrowleaf waterplantain = assay: Petri dish test (Test 6); format: in vivo; conditions: 336 h; seeds on filter paper, 25° C., 14 days; read-out: I80 (ppm)
Experimental: A filter paper was placed in each glass-made Petri dish having a diameter of 9 cm. A compound dissolved in acetone was added in a predetermined amount. The filter paper was then dried in air to remove acetone. Seeds of narrowleaf waterplantain were placed on the filter paper and 10 ml of water were poured into the Petri dish. The seeds were allowed to grow at 25° C. in a bright room. Fourteen days later, the state of growth of narrowleaf water-plantain was observed.
In the table, the degree of damages of the test plant was determined by comparing the state of growth of the plant with that of the plant in an untreated group and is shown in accordance with the following standard: […]

SMILES | Inhibitory activity (%) Barnyardgrass [1] [%] | Herbicidal effects Barnyardgrass (barnyardgrass [2]) | Herbicidal effects Common lambsquarters (common lambsquarters) | Herbicidal effects Foxtail meadow (foxtail meadow) | Herbicidal effects Green foxtail (green foxtail) | Herbicidal effects Johnsongrass (johnsongrass) | Herbicidal effects Large crabgrass (large crabgrass) | Herbicidal effects Redroot pigweed (redroot pigweed) | Injury Peanut (peanut) | Herbicidal effects Sagittaria Pygmaea (Sagittaria pygmaea [3]) | Herbicidal effects Barnyardgrass (barnyardgrass [4]) | Herbicidal effects Bulrush (bulrush [5]) | Injury Rice (rice [6]) | Herbicidal effects Sagittaria Pygmaea (Sagittaria pygmaea [7]) | Herbicidal effects Barnyardgrass (barnyardgrass [8]) | Herbicidal effects Bulrush (bulrush [9]) | Injury Rice (rice [10]) | IC80 (narrowleaf waterplantain) [µg/mL]
COC(=O)c1ccccc1Oc1nc(OC)cc(OC)n1 [A, reference compound] | 73 | 5 (0-5 (Death)) | 4 (6-10 (Severe damages)) | 5 (0-5 (Death)) | 5 (0-5 (Death)) | 5 (0-5 (Death)) | 5 (0-5 (Death)) | 5 (0-5 (Death)) | 5 (0-5 (Death)) | 4 (6-10 (Severe damages)) | 5 (0-5 (Death)) | 5 (0-5 (Death)) | 5 (0-5 (Death)) | 4 (6-10 (Severe damages)) | 5 (0-5 (Death)) | 4 (6-10 (Severe damages)) | 5 (0-5 (Death)) | 1 (≈ 3.45 µM)
COc1cc(OC)nc(Oc2ccccc2C=O)n1 [B, reference compound] | 98 | 4 (6-10 (Severe damages)) | 3 (11-40 (Medium damages)) | 4 (6-10 (Severe damages)) | 4 (6-10 (Severe damages)) | 4 (6-10 (Severe damages)) | 4 (6-10 (Severe damages)) | 3 (11-40 (Medium damages)) | 5 (0-5 (Death)) | 5 (0-5 (Death)) | 3 (11-40 (Medium damages)) | 3 (11-40 (Medium damages)) | 5 (0-5 (Death)) | 4 (6-10 (Severe damages)) | 5 (0-5 (Death)) | 5 (0-5 (Death)) | 5 (0-5 (Death)) | 1 (≈ 3.84 µM)
CON=Cc1ccccc1Oc1nc(OC)cc(OC)n1 [Compound No. 1, O-methyl--2-(4,6-dimethoxy-2-pyrimidinyloxy)benzaldoxime] | 58 | 5 (0-5 (Death)) | 4 (6-10 (Severe damages)) | 5 (0-5 (Death)) | 5 (0-5 (Death)) | 5 (0-5 (Death)) | 3 (11-40 (Medium damages)) | 5 (0-5 (Death)) | 0 (91-100 (No damages)) | 3 (11-40 (Medium damages)) | 2 (41-70 (Small damages)) | 2 (41-70 (Small damages)) | 0 (91-100 (No damages)) | 3 (11-40 (Medium damages)) | 4 (6-10 (Severe damages)) | 5 (0-5 (Death)) | 0 (91-100 (No damages)) | 25 (≈ 86.4 µM)
C=CC(C)ON=Cc1ccccc1Oc1nc(OC)cc(OC)n1 (stereo not drawn) [Compound No. 2] | 21 | 5 (0-5 (Death)) | 4 (6-10 (Severe damages)) | 5 (0-5 (Death)) | 5 (0-5 (Death)) | 5 (0-5 (Death)) | 5 (0-5 (Death)) | 4 (6-10 (Severe damages)) | 0 (91-100 (No damages)) | 4 (6-10 (Severe damages)) | 5 (0-5 (Death)) | 4 (6-10 (Severe damages)) | 1 (71-90 (Slight damages)) | 5 (0-5 (Death)) | 5 (0-5 (Death)) | 5 (0-5 (Death)) | 0 (91-100 (No damages)) | 100 (≈ 304 µM)

From patent publication US5053070A, “Pyrimidine derivatives, preparation processes thereof, herbicide containing the same, and herbicidal compositions containing the same along with other active ingredient” (Mitsui Toatsu Chemicals, Incorporated, priority 1988, dated 1991)
